Results as given in patent US20240139221A1, “TREATMENT OF HPV-INDUCED NEOPLASIA” (priority 2022, published 2024).
Read-outs that look alike come from different tables or passages of the source.

Columns and labels:
[1] = Approximate solubility in solvents at 25° C. and 50° C., visual observation; type: physicochemical; settings: thermodynamic from solid
Method: The maximum volume of each solvent added was 1 mL. Approximate solubility was determined by visual observation.
Maximum volume of each solvent added was 1 mL. Approximate solubility was determined by visual observation.

[2] = Solubility in buffers, water and simulated vaginal fluid at 37° C.; settings: for solubility at 0.5 h / solubility at 2 h: 37 °C, thermodynamic from solid; for pH of solution at 2 hrs: 37° C.
Method: About 4 mg of Compound I Pattern 1 was added into 2 mL of buffer solution.
(§1) Solubility was tested in five media, pH 3.0 citrate buffer, pH 4.5 acetate buffer, pH 6.8 phosphate buffer, water, simulated vaginal fluid (pH 4.2) at 37° C. for 0.5 h and 2 h.
The salt amount used is equivalent to 10 mg anhydrous free base. […] The obtained clear solutions were analyzed by pH meter for pH, and solubility was determined by observation.
as §1

[3] = Hygroscopicity by DVS at 25° C.; type: physicochemical; settings: DVS 25° C.; for D. (%) Cycle 1: Desorption cycle 1; for D. (%) Cycle 2: Desorption cycle 2; for S. (%) Cycle 1: Sorption cycle 1; for S. (%) Cycle 2: Sorption cycle 2
Method: Hygroscopicity was investigated by DVS at 25° C., using the following method: […]

[4] = Behavior under compression, grinding simulation and granulation simulation (XRPD); type: physicochemical
Method: About 10 mg of Compound I monofumarate Pattern 1 (Example 7) was compressed for 5 minutes at 10 MPa with a hydraulic press. XRPD characterization was performed to investigate the polymorphic behavior under compression.
About 10 mg of Compound I monofumarate Pattern 1 (Example 7) was ground manually with a mortar and pestle for 5 min. Form transformation and degree of crystallinity was evaluated by XRPD.
Water or ethanol was added drop wise to about 10 mg of Compound I monofumarate Pattern 1 (Example 7) until solids were wetted sufficiently. The samples were ground manually with a mortar and pestle for 3 minutes. Samples are dried under ambient condition for 10 min. Form transformation and degree of crystallinity were evaluated by XRPD.

[5] = Tablet stability study (purity by HPLC); type: physicochemical
Method: Tablets were prepared using the excipients and excipient ratios shown in the first column of the following tables. The tablets were then stored under the conditions indicated and periodically sampled and tested for purity by HPLC.

[6] = Bulk stability (accelerated stability, one week; HPLC and XRPD)
Method: Bulk stability: Accelerated stability experiments were conducted at 25° C./92% RH and 40° C./75% RH in an open container, 60° C. in a tight container for one week.
Samples were characterized by XRPD and HPLC and inspected for color change.
Accelerated stability experiments were conducted at 25° C./92% RH in an open container, at 40° C./75% RH in an open container, and at 60° C. in a tight container for one week.

[7] = pH 4.2, fassgf or other biorelevant
[8] = ground manually with mortar and pestle for 5 min
[9] = excipients PC (7.5%) + MCC (91.46%) + MgS (1%)
[10] = excipients PC (7.5%) + Mannitol (91.46%) + MgS (1%)
[11] = excipients PEO-15 (25%) + MCC (74%) + MgS (1%)
[12] = excipients PEO-15 (25%) + Mannitol (74%) + MgS (1%)
[13] = 25° C., 92% RH, open container, one week
[14] = 40° C., 75% RH, open container, one week
[15] = 60° C., tight container, one week

## CCOC(=O)[C@H](C)NP(=O)(COCCn1cnc2c(OC)nc(N)nc21)OCc1ccccc1.O=C(O)/C=C/C(=O)O (mixture of isomers) [Compound I monofumarate, (±)-(2S)-Ethyl-2-((((2-(2-amino-6-methoxy-9H-purin-9-yl)-ethoxy)-methyl)-(benzyloxy)-phosphoryl)-amino)-propionate monofumarate]
[1]; 25 °C, organic solvent or mixture, Table 14, ACN, 25° C., read-out: Solubility (mg/mL) 25° C.
  solubility: 20 to 25 mg/mL
[1]; 25 °C, organic solvent or mixture, Table 14, Acetone, 25° C., read-out: Solubility (mg/mL) 25° C.
  solubility: 50 to 100 mg/mL
[1]; 25 °C, organic solvent or mixture, Table 14, DCM, 25° C., read-out: Solubility (mg/mL) 25° C.
  solubility: < 2 mg/mL
[1]; 25 °C, organic solvent or mixture, Table 14, EA, 25° C., read-out: Solubility (mg/mL) 25° C.
  solubility: < 2 mg/mL
[1]; 25 °C, organic solvent or mixture, Table 14, EtOH, 25° C., read-out: Solubility (mg/mL) 25° C.
  solubility: > 100 mg/mL
[1]; 25 °C, organic solvent or mixture, Table 14, Heptanes, 25° C., read-out: Solubility (mg/mL) 25° C.
  solubility: < 2 mg/mL
[1]; 25 °C, organic solvent or mixture, Table 14, IPA, 25° C., read-out: Solubility (mg/mL) 25° C.
  solubility: 50 to 100 mg/mL
[1]; 25 °C, organic solvent or mixture, Table 14, IPAc, 25° C., read-out: Solubility (mg/mL) 25° C.
  solubility: < 2 mg/mL
[1]; 25 °C, organic solvent or mixture, Table 14, MEK, 25° C., read-out: Solubility (mg/mL) 25° C.
  solubility: 20 to 25 mg/mL
[1]; 25 °C, organic solvent or mixture, Table 14, MTBE, 25° C., read-out: Solubility (mg/mL) 25° C.
  solubility: < 2 mg/mL
[1]; 25 °C, organic solvent or mixture, Table 14, MeOH, 25° C., read-out: Solubility (mg/mL) 25° C.
  solubility: > 100 mg/mL
[1]; 25 °C, organic solvent or mixture, Table 14, THF, 25° C., read-out: Solubility (mg/mL) 25° C.
  solubility: > 100 mg/mL
[1]; 25 °C, organic solvent or mixture, Table 14, Toluene, 25° C., read-out: Solubility (mg/mL) 25° C.
  solubility: < 2 mg/mL
[1]; 25 °C, water, Table 14, Water, 25° C., read-out: Solubility (mg/mL) 25° C.
  solubility: 14 to 17 mg/mL
[1]; 50 °C, organic solvent or mixture, Table 14, ACN, 50° C., read-out: Solubility (mg/mL) 50° C.
  solubility: 20 to 33 mg/mL
[1]; 50 °C, organic solvent or mixture, Table 14, Acetone, 50° C., read-out: Solubility (mg/mL) 50° C.
  solubility: 125 to 167 mg/mL
[1]; 50 °C, organic solvent or mixture, Table 14, DCM, 50° C., read-out: Solubility (mg/mL) 50° C.
  solubility: < 10 mg/mL
[1]; 50 °C, organic solvent or mixture, Table 14, EA, 50° C., read-out: Solubility (mg/mL) 50° C.
  solubility: < 10 mg/mL
[1]; 50 °C, organic solvent or mixture, Table 14, EtOH, 50° C., read-out: Solubility (mg/mL) 50° C.
  solubility: 250 to 500 mg/mL
[1]; 50 °C, organic solvent or mixture, Table 14, Heptanes, 50° C., read-out: Solubility (mg/mL) 50° C.
  solubility: < 10 mg/mL
[1]; 50 °C, organic solvent or mixture, Table 14, IPA, 50° C., read-out: Solubility (mg/mL) 50° C.
  solubility: 71 to 84 mg/mL
[1]; 50 °C, organic solvent or mixture, Table 14, IPAc, 50° C., read-out: Solubility (mg/mL) 50° C.
  solubility: < 10 mg/mL
[1]; 50 °C, organic solvent or mixture, Table 14, MEK, 50° C., read-out: Solubility (mg/mL) 50° C.
  solubility: 22 to 25 mg/mL
[1]; 50 °C, organic solvent or mixture, Table 14, MTBE, 50° C., read-out: Solubility (mg/mL) 50° C.
  solubility: < 10 mg/mL
[1]; 50 °C, organic solvent or mixture, Table 14, MeOH, 50° C., read-out: Solubility (mg/mL) 50° C.
  solubility: > 500 mg/mL
[1]; 50 °C, organic solvent or mixture, Table 14, THF, 50° C., read-out: Solubility (mg/mL) 50° C.
  solubility: 250 to 500 mg/mL
[1]; 50 °C, organic solvent or mixture, Table 14, Toluene, 50° C., read-out: Solubility (mg/mL) 50° C.
  solubility: < 10 mg/mL
[1]; 50 °C, water, Table 14, Water, 50° C., read-out: Solubility (mg/mL) 50° C.
  solubility: 22 to 25 mg/mL
[2]; pH 3, aqueous buffer
  solubility at 0.5 h: > 2 mg/mL
  solubility at 2 h: > 2 mg/mL
[2]; [7]
  solubility at 0.5 h: > 2 mg/mL
  solubility at 2 h: > 2 mg/mL
[2]; pH 4.5, aqueous buffer
  solubility at 0.5 h: > 2 mg/mL
  solubility at 2 h: > 2 mg/mL
[2]; pH 6.8, aqueous buffer
  solubility at 0.5 h: > 2 mg/mL
  solubility at 2 h: > 2 mg/mL
[2]; water
  solubility at 0.5 h: > 2 mg/mL
  solubility at 2 h: > 2 mg/mL
[2]; Simulated vaginal fluid (pH adjusted with 0.2N NaOH)
  pH of solution at 2 hrs: (5.39)
[2]; Water
  pH of solution at 2 hrs: (3.11)
[2]; pH 3.0 100 mM citrate buffer
  pH of solution at 2 hrs: (3.05)
[2]; pH 4.5 50 mM acetate buffer
  pH of solution at 2 hrs: (4.36)
[2]; pH 6.8 50 mM phosphate buffer
  pH of solution at 2 hrs: (6.49)
[3]; 0% RH
  D. (%) Cycle 1: 0.49%
  D. (%) Cycle 2: 0.09%
  S. (%) Cycle 1: 0.49%
  S. (%) Cycle 2: 0.09%
[3]; 10% RH
  D. (%) Cycle 1: 0.62%
  D. (%) Cycle 2: 0.15%
  S. (%) Cycle 1: 0.56%
  S. (%) Cycle 2: 0.18%
[3]; 20% RH
  D. (%) Cycle 1: 0.71%
  D. (%) Cycle 2: 0.35%
  S. (%) Cycle 1: 0.66%
  S. (%) Cycle 2: 0.27%
[3]; 30% RH
  D. (%) Cycle 1: 0.81%
  D. (%) Cycle 2: 0.47%
  S. (%) Cycle 1: 0.76%
  S. (%) Cycle 2: 0.37%
[3]; 40% RH
  D. (%) Cycle 1: 0.93%
  D. (%) Cycle 2: 0.56%
  S. (%) Cycle 1: 0.86%
  S. (%) Cycle 2: 0.47%
[3]; 50% RH
  D. (%) Cycle 2: 0.67%
  S. (%) Cycle 1: 0.71%
[3]; 60% RH
  D. (%) Cycle 2: 0.85%
  S. (%) Cycle 1: 0.85%
[3]; 70% RH
  D. (%) Cycle 2: 1.04%
  S. (%) Cycle 1: 1.02%
[3]; 80% RH
  D. (%) Cycle 2: 1.30%
  S. (%) Cycle 1: 1.27%
[3]; 90% RH
  D. (%) Cycle 2: 1.84%
  S. (%) Cycle 1: 1.78%
[3]; 95% RH
  D. (%) Cycle 2: 2.89%
  S. (%) Cycle 1: 2.89%
[3]; up to 95% RH
  water uptake: about 2.9%
[4]; [8]
  degree of crystallinity on grinding (XRPD): crystallinity slightly decreased
  form transformation on grinding (XRPD): no form change was observed
[4]; wetted with water or ethanol, ground 3 minutes, dried 10 min
  form transformation on granulation simulation (XRPD): neither in ethanol, nor in water form change was observed
[5]; [9]
  purity by HPLC, 0 months: 99.81
  purity by HPLC, 1 month 25 C./60% RH: 98.04
  purity by HPLC, 1 month 40 C./75% RH: 84.92
[5]; [10]
  purity by HPLC, 0 months: 99.61
  purity by HPLC, 1 month 25 C./60% RH: 98.77
  purity by HPLC, 1 month 40 C./75% RH: 85.26
[5]; [11]
  purity by HPLC, 0 months: 99.03
  purity by HPLC, 1 month 25 C./60% RH: 97.76
  purity by HPLC, 1 month 40 C./75% RH: 83.13
[5]; [12]
  purity by HPLC, 0 months: 97.95
  purity by HPLC, 1 month 25 C./60% RH: 97.04
  purity by HPLC, 1 month 40 C./75% RH: 87.09
[6]; 25° C., 84% RH, open container, 2 days
  XRPD after storage: No change
[6]; [13]
  HPLC (purity) after storage: 98.2%
  XRPD after storage: No change
[6]; [14]
  HPLC (purity) after storage: 95.6%
  XRPD after storage: No change
[6]; [15]
  HPLC (purity) after storage: 95.5%
  XRPD after storage: No change
[6]; initial, before storage
  HPLC (purity), Initial: 98.6%
